Our source for the IC50 values is patent publication US7868005B2, “Pyrazinyl substituted piperazine-piperidines with CXCR3 antagonist activity” (Schering Corporation, priority 2005, dated 2011).

A word on the pIC50: it is the IC50 on a negative log10 scale, so that one unit is a factor of ten.

pIC50: −log10 of the molar value.

This assay addresses T1, human CXCR3 (N-delta 4) (Homo sapiens, UniProt P49682).
T1 construct: CD8 leader (N); Flag; expressed in transfected cells; membranes prepared
T1 sequence (P49682 5-368 limits assumed): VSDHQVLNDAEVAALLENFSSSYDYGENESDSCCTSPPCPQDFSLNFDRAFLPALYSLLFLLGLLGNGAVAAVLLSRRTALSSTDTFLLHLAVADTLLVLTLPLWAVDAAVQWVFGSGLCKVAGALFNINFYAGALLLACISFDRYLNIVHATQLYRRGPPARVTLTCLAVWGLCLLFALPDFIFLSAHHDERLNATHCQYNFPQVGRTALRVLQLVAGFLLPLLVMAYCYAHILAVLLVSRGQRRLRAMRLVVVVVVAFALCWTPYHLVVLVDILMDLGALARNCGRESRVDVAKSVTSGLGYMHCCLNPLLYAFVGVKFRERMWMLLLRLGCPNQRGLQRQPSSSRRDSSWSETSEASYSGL
The assay is described as follows: Human CXCR3 (N-delta 4) Scintillation Proximity Assay (SPA), [125I] IP-10 binding to Ba/F3-hCXCR3 membranes. As to conditions: IC50 rating, Table 1; read-out: IC50.
For the compound `CC[C@H]1CN(c2nc(N)c(C(=O)NCCO)nc2Cl)CCN1C1CCN(Cc2ccc(F)c(F)c2O)CC1` [compound 178], the pIC50 was 7.00 to 7.60.

Turning to `CC[C@H]1CN(c2nc(N)c(C(=O)NCCO)nc2Cl)CCN1C1CCN(C(CCNC(C)=O)c2ccc(Cl)cc2)CC1` (some centres unmarked) [compound 179], the pIC50 is 7.00 to 7.60.

Turning to `CC[C@H]1CN(c2nc(N)c(C(=O)NCCO)nc2Cl)CCN1C1CCN(Cc2ccc(C#N)cc2O)CC1` [compound 180], the pIC50 was 7.00 to 7.60.

For `CC[C@H]1CN(c2nc(N)c(C(=O)NCCO)nc2Cl)CCN1C1CCN(Cc2cc(F)c(F)c(F)c2O)CC1` [compound 181], the pIC50 is 7.00 to 7.60.

On to `CC[C@H]1CN(c2nc(N)c(C(=O)NCCO)nc2Cl)CCN1C1CCN([C@H](CO)c2ccc(F)c(F)c2)CC1` [compound 182], for which the pIC50 was 7.00 to 7.60.

As to `CC[C@H]1CN(c2nc(N)c(C(=O)NCCO)nc2Cl)CCN1C1CCN(Cc2ccc(F)c(F)c2N2CCOCC2)CC1` [compound 183], the pIC50 is 7.00 to 7.60.

Take `CC[C@H]1CN(c2nc(N)c(C(=O)NCCO)nc2Cl)CCN1C1CCN(C(C(=O)O)c2ccc(Cl)cc2)CC1` (some centres unmarked) [compound 184]: the pIC50 is 7.00 to 7.60.

As for `CC[C@H]1CN(c2nc(N)c(C(=O)NCCO)nc2Cl)CCN1C1CCN([C@@H](C(=O)OC)c2ccc(F)c(F)c2)CC1` [compound 185], the pIC50 was 7.00 to 7.60.

On to `CC[C@H]1CN(c2nc(N)c(C(=O)NCCO)nc2Cl)CCN1C1CCN(Cc2c(O)cc(Cl)cc2Cl)CC1` [compound 186], for which the pIC50 was 7.00 to 7.60.

With `CC[C@H]1CN(c2nc(N)c(C(=O)NCCO)nc2Cl)CCN1C1CCN(C(CCOC)c2ccc(Cl)cc2)CC1` (some centres unmarked) [compound 187], the pIC50 is 7.00 to 7.60.

On to `CC[C@H]1CN(c2nc(N)c(C(=O)NCCO)nc2Cl)CCN1C1CCN(Cc2ccc(F)c(F)c2N2CCC(=O)C2)CC1` [compound 188], for which the pIC50 was 7.00 to 7.60.

On to `CC[C@H]1CN(c2nc(N)c(C(=O)NCCO)nc2Cl)CCN1C1CCN(Cc2ccc(Cl)cc2O[C@H]2CCOC2)CC1` [compound 189], for which the pIC50 was 7.00 to 7.60.

For `CC[C@H]1CN(c2nc(N)c(C(=O)NCCO)nc2Cl)CCN1C1CCN(Cc2ccc(C#N)cc2OCC(=O)NCCO)CC1` [compound 191], the pIC50 is 7.00 to 7.60.

For `CC[C@H]1CN(c2nc(N)c(C(=O)NCCO)nc2Cl)CCN1C1CCN([C@H](C(=O)OC)c2ccc(Cl)cc2)CC1` [compound 192], the pIC50 is less than 7.00.

On to `CC[C@H]1CN(c2nc(N)c(C(=O)NCCO)nc2Cl)CCN1C1CCN(Cc2ccc(C#N)cc2OCCN2CCCC2=O)CC1` [compound 193], for which the pIC50 is less than 7.00.

In the case of `CC[C@H]1CN(c2nc(N)c(C(=O)NCCO)nc2Cl)CCN1C1CCN(Cc2ccc(Cl)cc2C(C)C(=O)OC)CC1` (some centres unmarked) [compound 194], the pIC50 is less than 7.00.

Regarding `CC[C@H]1CN(c2nc(N)c(C(=O)NCCO)nc2Cl)CCN1C1CCN(Cc2ccc(Cl)cc2OCCN2CCCC2=O)CC1` [compound 195], the pIC50 was less than 7.00.

On to `CC[C@H]1CN(c2nc(N)c(C(=O)NCCO)nc2Cl)CCN1C1CCN(Cc2ccc(Cl)cc2NS(C)(=O)=O)CC1` [compound 196], for which the pIC50 was less than 7.00.

As for `CC[C@H]1CN(c2nc(N)c(C(=O)NCCO)nc2Cl)CCN1C1CCN(Cc2ccc(Cl)cc2C(=O)N2CCOCC2)CC1` [compound 197], the pIC50 was less than 7.00.

For the compound `CC[C@H]1CN(c2nc(N)c(C(=O)NCCO)nc2Cl)CCN1C1CCN([C@H](C(=O)OC)c2ccc(F)c(F)c2)CC1` [compound 198], the pIC50 was less than 7.00.

Take `CC[C@H]1CN(c2nc(N)c(C(=O)NCCO)nc2Cl)CCN1C1CCN(C(CCN)c2ccc(Cl)cc2)CC1` (some centres unmarked) [compound 199]: the pIC50 was less than 7.00.

Consider `CC[C@H]1CN(c2nc(N)c(C(=O)NCCO)nc2Cl)CCN1C1CCN([C@H](C(=O)OC)c2ccc(C#N)cc2)CC1` [compound 200], for which the pIC50 was less than 7.00.

Regarding `CC[C@H]1CN(c2nc(N)c(C(=O)NCCO)nc2Cl)CCN1C1CCN(Cc2c(F)cc(F)c(F)c2O)CC1` [compound 201], the pIC50 is less than 7.00.

On to `CC[C@H]1CN(c2nc(N)c(C(=O)NCCO)nc2Cl)CCN1C1CCN(Cc2ccc(Cl)cc2C(C)C(=O)O)CC1` (some centres unmarked) [compound 202], for which the pIC50 is less than 7.00.

As for `CC[C@H]1CN(c2nc(N)c(C(=O)NCCO)nc2Cl)CCN1C1CCN([C@H](C(=O)O)c2ccc(Cl)cc2)CC1` [compound 203], the pIC50 was less than 7.00.

Turning to `CC[C@H]1CN(c2nc(N)c(C(=O)NCCO)nc2Cl)CCN1C1CCN(C(Cc2nn[nH]n2)c2ccc(Cl)cc2)CC1` (some centres unmarked) [compound 204], the pIC50 is less than 7.00.

As for `CC[C@H]1CN(c2nc(N)c(C(=O)NCCO)nc2Cl)CCN1C1CCN(Cc2ccc(N3CCOCC3)c(F)c2F)CC1` [compound 205], the pIC50 is less than 7.00.

In the case of `CC[C@H]1CN(c2nc(N)c(C(=O)NCCO)nc2Cl)CCN1C1CCN(C(C(=O)OC)c2ccc(Cl)cc2OC)CC1` (some centres unmarked) [compound 206], the pIC50 is less than 7.00.

In the case of `CC[C@H]1CN(c2nc(N)c(C(=O)NCCO)nc2Cl)CCN1C1CCN(C(c2ccc(Cl)cc2)c2nccs2)CC1` (some centres unmarked) [compound 207], the pIC50 was less than 7.00.

Regarding `CC[C@H]1CN(c2nc(N)c(C(=O)NCc3nccs3)nc2Cl)CCN1C1CCN(Cc2ccc(C#N)cc2)CC1` [compound 208], the pIC50 is less than 7.00.

Take `CC[C@H]1CN(c2nc(N)c(C(=O)N3CC[C@H](NS(C)(=O)=O)C3)nc2Cl)CCN1C1CCN(Cc2ccc(Cl)cc2)CC1` [compound 209]: the pIC50 was less than 7.00.

In the case of `CC[C@H]1CN(c2nc(N)c(C(=O)N[C@@H]3CCCNC3=O)nc2Cl)CCN1C1CCN(Cc2ccc(C#N)cc2)CC1` [compound 210], the pIC50 was less than 7.00.

Regarding `CC[C@H]1CN(c2nc(N)c(C(=O)N[C@H]3CCN(C)C3=O)nc2Cl)CCN1C1CCN(Cc2ccc(C#N)cc2)CC1` [compound 211], the pIC50 is less than 7.00.

`CC[C@H]1CN(c2nc(N)c(C(=O)NCc3cc(O)no3)nc2Cl)CCN1C1CCN(Cc2ccc(Cl)cc2)CC1` [compound 212]: the pIC50 was less than 7.00.

On to `CC[C@H]1CN(c2nc(N)c(C(=O)NCC(N)=O)nc2Cl)CCN1C1CCN(Cc2ccc(Cl)cc2)CC1` [compound 213], for which the pIC50 was 7.00 to 7.60.

For `CC[C@H]1CN(c2nc(N)c(C(=O)NCC(=O)OC)nc2Cl)CCN1C1CCN(Cc2ccc(Cl)cc2)CC1` [compound 214], the pIC50 is greater than 7.60.

For the compound `CC[C@H]1CN(c2nc(N)c(C(=O)NCC(F)(F)F)nc2Cl)CCN1C1CCN(Cc2ccc(Cl)cc2)CC1` [compound 216], the pIC50 was greater than 7.60.

On to `CC[C@H]1CN(c2nc(N)c(C(=O)NCC(C)O)nc2Cl)CCN1C1CCN(Cc2ccc(Cl)cc2)CC1` (some centres unmarked) [compound 217], for which the pIC50 was greater than 7.60.

For `CC[C@H]1CN(c2nc(N)c(C(=O)NC[C@@H](C)O)nc2Cl)CCN1C1CCN(Cc2ccc(Cl)cc2[C@H](O)C(N)=O)CC1` [compound 218], the pIC50 is greater than 7.60.

For the compound `CC[C@H]1CN(c2nc(N)c(C(=O)NC[C@@H](C)O)nc2Cl)CCN1C1CCN(Cc2ccc(Cl)cc2C(O)C(=O)OC)CC1` (some centres unmarked) [compound 219], the pIC50 is greater than 7.60.

With `CC[C@H]1CN(c2nc(N)c(C(=O)NC[C@@H](C)O)nc2Cl)CCN1C1CCN(Cc2ccc(Cl)cc2CC#N)CC1` [compound 220], the pIC50 is greater than 7.60.

As for `CC[C@H]1CN(c2nc(N)c(C(=O)NC[C@@H](C)O)nc2Cl)CCN1C1CCN(Cc2ccc(C#N)cc2)CC1` [compound 221], the pIC50 is greater than 7.60.

With `CC[C@H]1CN(c2nc(N)c(C(=O)NC[C@@H](C)O)nc2Cl)CCN1C1CCN(Cc2ccc(Cl)cc2[C@@H](O)C(N)=O)CC1` [compound 222], the pIC50 was greater than 7.60.

On to `CC[C@H]1CN(c2nc(N)c(C(=O)NC[C@@H](C)O)nc2Cl)CCN1C1CCN(Cc2ccc(Cl)cc2CCNS(C)(=O)=O)CC1` [compound 223], for which the pIC50 was greater than 7.60.

For `CC[C@H]1CN(c2nc(N)c(C(=O)NC[C@@H](C)O)nc2Cl)CCN1C1CCN(Cc2ccc(Cl)cc2CCNC(C)=O)CC1` [compound 224], the pIC50 is 7.00 to 7.60.

`CC[C@H]1CN(c2nc(N)c(C(=O)NCCCNS(=O)(=O)C(F)(F)F)nc2Cl)CCN1C1CCN(Cc2ccc(C#N)cc2)CC1` [compound 225]: the pIC50 is less than 7.00.

`CC[C@H]1CN(c2nc(N)c(C(=O)NCCCNS(C)(=O)=O)nc2Cl)CCN1C1CCN(Cc2ccc(C#N)cc2)CC1` [compound 226]: the pIC50 was less than 7.00.

For the compound `CC[C@H]1CN(c2nc(N)c(C(=O)NCCCO)nc2Cl)CCN1C1CCN(Cc2ccc(Cl)cc2)CC1` [compound 227], the pIC50 is 7.00 to 7.60.

For the compound `CC[C@H]1CN(c2nc(N)c(C(=O)NCCC#N)nc2Cl)CCN1C1CCN(Cc2ccc(C#N)cc2)CC1` [compound 228], the negative logarithm of the IC50 (pIC50) is greater than 7.60.

For `CC[C@H]1CN(c2nc(N)c(C(=O)NCCNc3ncccn3)nc2Cl)CCN1C1CCN(Cc2ccc(Cl)cc2)CC1` [compound 229], the pIC50 is greater than 7.60.

Consider `CC[C@H]1CN(c2nc(N)c(C(=O)NCCNC(C)=O)nc2Cl)CCN1C1CCN(Cc2ccc(Cl)cc2)CC1` [compound 230], for which the pIC50 was greater than 7.60.

Take `CC[C@H]1CN(c2nc(N)c(C(=O)NCCNC(N)=O)nc2Cl)CCN1C1CCN(C(CO)c2ccc(Cl)cc2)CC1` (some centres unmarked) [compound 231]: the pIC50 is greater than 7.60.

Turning to `CC[C@H]1CN(c2nc(N)c(C(=O)NCCNC(N)=O)nc2Cl)CCN1C1CCN(C(CO)c2ccc(C#N)cc2)CC1` (some centres unmarked) [compound 232], the pIC50 is 7.00 to 7.60.

Regarding `CC[C@H]1CN(c2nc(N)c(C(=O)NCCN)nc2Cl)CCN1C1CCN(Cc2ccc(Cl)cc2)CC1` [compound 233], the negative-log IC50 (pIC50) was greater than 7.60.

Take `CC[C@H]1CN(c2nc(N)c(C(=O)NCCN)nc2Cl)CCN1C1CCN(Cc2ccc(Cl)cc2C#N)CC1` [compound 234]: the negative-log IC50 (pIC50) was 7.00 to 7.60.

Turning to `CC[C@H]1CN(c2nc(N)c(C(=O)NCCNC(=O)OC(C)(C)C)nc2Cl)CCN1C1CCN(Cc2ccc(Cl)cc2C#N)CC1` [compound 235], the pIC50 is less than 7.00.
